Test results published in PubChem BioAssay (NCI).
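Each compound was tested at five concentrations against cells in 96-well plates for 48 hours. At the TGI there is no net growth.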

What was measured:
Test in all cases: NCI-60 cell line screen, 48 h
HS 578T breast = test system: HS 578T breast
786-0 renal = test system: 786-0 renal
NCI-H226 lung = test system: NCI-H226 lung
UACC-62 melanoma = test system: UACC-62 melanoma
MALME-3M melanoma = test system: MALME-3M melanoma
IGROV1 ovarian = test system: IGROV1 ovarian
HL-60(TB) leukemia = test system: HL-60(TB) leukemia
EKVX NSCLC = test system: EKVX NSCLC
MOLT-4 leukemia = test system: MOLT-4 leukemia
COLO 205 colon = test system: COLO 205 colon
SK-MEL-5 melanoma = test system: SK-MEL-5 melanoma
SK-MEL-28 melanoma = test system: SK-MEL-28 melanoma
NCI-H522 lung = test system: NCI-H522 lung
U251 CNS = test system: U251 CNS
SR leukemia = test system: SR leukemia
DU-145 prostate = test system: DU-145 prostate
NCI-H460 lung = test system: NCI-H460 lung
HT29 colon = test system: HT29 colon
SN12C renal = test system: SN12C renal
MDA-MB-435 = test system: MDA-MB-435
TK-10 renal = test system: TK-10 renal
MDA-N = test system: MDA-N
ACHN renal = test system: ACHN renal
NCI-H23 lung = test system: NCI-H23 lung
BT-549 breast = test system: BT-549 breast
A498 renal = test system: A498 renal
OVCAR-4 ovarian = test system: OVCAR-4 ovarian
CAKI-1 renal = test system: CAKI-1 renal
SNB-19 CNS = test system: SNB-19 CNS
UO-31 renal = test system: UO-31 renal
LOX IMVI melanoma = test system: LOX IMVI melanoma
OVCAR-3 ovarian = test system: OVCAR-3 ovarian
CCRF-CEM leukemia = test system: CCRF-CEM leukemia
PC-3 prostate = test system: PC-3 prostate
SK-OV-3 ovarian = test system: SK-OV-3 ovarian
T-47D breast = test system: T-47D breast
SF-539 CNS = test system: SF-539 CNS
MDA-MB-231 breast = test system: MDA-MB-231 breast
HOP-62 NSCLC = test system: HOP-62 NSCLC
SNB-75 CNS = test system: SNB-75 CNS
SF-295 CNS = test system: SF-295 CNS
OVCAR-8 ovarian = test system: OVCAR-8 ovarian
UACC-257 melanoma = test system: UACC-257 melanoma
SK-MEL-2 melanoma = test system: SK-MEL-2 melanoma
HCC-2998 colon = test system: HCC-2998 colon
A549 NSCLC = test system: A549 NSCLC
SW-620 colon = test system: SW-620 colon
SF-268 CNS = test system: SF-268 CNS
M14 melanoma = test system: M14 melanoma
HCT-15 colon = test system: HCT-15 colon
NCI/ADR-RES ovarian = test system: NCI/ADR-RES ovarian
KM12 colon = test system: KM12 colon
RPMI-8226 leukemia = test system: RPMI-8226 leukemia
RXF 393 renal = test system: RXF 393 renal
OVCAR-5 ovarian = test system: OVCAR-5 ovarian
HOP-92 NSCLC = test system: HOP-92 NSCLC
MCF7 breast = test system: MCF7 breast
K-562 leukemia = test system: K-562 leukemia
HCT-116 colon = test system: HCT-116 colon

## COc1ccc(N2C(=O)C3c4[nH]c5ccc([N+](=O)[O-])cc5c4C4CCC(C(C)(C)C)CC4C3C2=O)cc1 (centres undefined)
HS 578T breast
  TGI: > 100 µM
786-0 renal
  TGI: 38 µM
NCI-H226 lung
  TGI: 72.6 µM
UACC-62 melanoma
  TGI: > 100 µM
MALME-3M melanoma
  TGI: > 100 µM
IGROV1 ovarian
  TGI: > 100 µM
HL-60(TB) leukemia
  TGI: 33.5 µM
EKVX NSCLC
  TGI: > 100 µM
MOLT-4 leukemia
  TGI: > 100 µM
COLO 205 colon
  TGI: 69.6 µM
SK-MEL-5 melanoma
  TGI: 33.8 µM
SK-MEL-28 melanoma
  TGI: > 100 µM
NCI-H522 lung
  TGI: > 100 µM
U251 CNS
  TGI: 90.7 µM
SR leukemia
  TGI: 8.56 µM
DU-145 prostate
  TGI: > 100 µM
NCI-H460 lung
  TGI: 63.9 µM
HT29 colon
  TGI: 20.1 µM
SN12C renal
  TGI: 76.9 µM
MDA-MB-435
  TGI: > 100 µM
TK-10 renal
  TGI: > 100 µM
MDA-N
  TGI: > 100 µM
ACHN renal
  TGI: 63.6 µM
NCI-H23 lung
  TGI: 60.4 µM
BT-549 breast
  TGI: > 100 µM
A498 renal
  TGI: 7.56 µM
OVCAR-4 ovarian
  TGI: > 100 µM
CAKI-1 renal
  TGI: > 100 µM
SNB-19 CNS
  TGI: > 100 µM
UO-31 renal
  TGI: 51.6 µM
LOX IMVI melanoma
  TGI: > 100 µM
OVCAR-3 ovarian
  TGI: 49.5 µM
CCRF-CEM leukemia
  TGI: > 100 µM
PC-3 prostate
  TGI: > 100 µM
SK-OV-3 ovarian
  TGI: > 100 µM
T-47D breast
  TGI: > 100 µM
SF-539 CNS
  TGI: > 100 µM
MDA-MB-231 breast
  TGI: 36.5 µM
HOP-62 NSCLC
  TGI: 78.8 µM
SNB-75 CNS
  TGI: > 100 µM
SF-295 CNS
  TGI: > 100 µM
OVCAR-8 ovarian
  TGI: > 100 µM
UACC-257 melanoma
  TGI: > 100 µM
SK-MEL-2 melanoma
  TGI: > 100 µM
HCC-2998 colon
  TGI: > 100 µM
A549 NSCLC
  TGI: > 100 µM
SW-620 colon
  TGI: > 100 µM
SF-268 CNS
  TGI: > 100 µM
M14 melanoma
  TGI: > 100 µM
HCT-15 colon
  TGI: > 100 µM
NCI/ADR-RES ovarian
  TGI: > 100 µM
KM12 colon
  TGI: > 100 µM
RPMI-8226 leukemia
  TGI: 89.5 µM
RXF 393 renal
  TGI: 9.34 µM
OVCAR-5 ovarian
  TGI: > 100 µM
HOP-92 NSCLC
  TGI: 45.7 µM
MCF7 breast
  TGI: > 100 µM
K-562 leukemia
  TGI: 7.33 µM
HCT-116 colon
  TGI: 23.9 µM
